{"source": "ChEMBL document CHEMBL3997817", "about": "“Filamenting temperature-sensitive mutant Z inhibitors from Glycyrrhiza glabra and their inhibitory mode of action” (Bioorg Med Chem Lett, 2017)", "key": {"Escherichia coli [1]": {"test_system": "Escherichia coli", "experiment": "Inhibition of Escherichia coli N-terminal hexahistidine-tagged FtsZ GTPase activity expressed in Escherichia coli BL21 (DE3) assessed as residual activity at 200 uM after 1 hr relative to control"}, "Bacillus subtilis [2]": {"test_system": "Bacillus subtilis", "experiment": "Inhibition of Bacillus subtilis N-terminal hexahistidine-tagged FtsZ GTPase activity expressed in Escherichia coli BL21 (DE3) assessed as residual activity at 20 uM after 1 hr relative to control"}, "Escherichia coli [3]": {"test_system": "Escherichia coli", "experiment": "Inhibition of Escherichia coli N-terminal hexahistidine-tagged FtsZ GTPase activity expressed in Escherichia coli BL21 (DE3) assessed as residual activity at 100 uM after 1 hr relative to control"}, "Escherichia coli [4]": {"test_system": "Escherichia coli", "experiment": "Inhibition of Escherichia coli N-terminal hexahistidine-tagged FtsZ GTPase activity expressed in Escherichia coli BL21 (DE3) assessed as residual activity at 20 uM after 1 hr relative to control"}, "Bacillus subtilis [5]": {"test_system": "Bacillus subtilis", "experiment": "Inhibition of Bacillus subtilis N-terminal hexahistidine-tagged FtsZ GTPase activity expressed in Escherichia coli BL21 (DE3) assessed as residual activity at 200 uM after 1 hr relative to control"}, "Bacillus subtilis [6]": {"test_system": "Bacillus subtilis", "experiment": "Inhibition of Bacillus subtilis N-terminal hexahistidine-tagged FtsZ GTPase activity expressed in Escherichia coli BL21 (DE3) assessed as residual activity at 100 uM after 1 hr relative to control"}, "Bacillus subtilis [7]": {"test_system": "Bacillus subtilis", "experiment": "Inhibition of Bacillus subtilis N-terminal hexahistidine-tagged FtsZ V307R mutant GTPase activity expressed in Escherichia coli BL21 (DE3) after 1 hr relative to wild type protein", "settings": "concentration not given here"}, "Bacillus subtilis [8]": {"test_system": "Bacillus subtilis", "experiment": "Antibacterial activity against Bacillus subtilis NBRC 3134 after overnight incubation by MTT assay", "type": "functional"}, "Bacillus subtilis [9]": {"test_system": "Bacillus subtilis", "experiment": "Inhibition of Bacillus subtilis N-terminal hexahistidine-tagged FtsZ GTPase activity expressed in Escherichia coli BL21 (DE3) at 100 uM after 1 hr relative to control"}, "[10]": {"experiment": "Uncompetitive inhibition of Bacillus subtilis N-terminal hexahistidine-tagged FtsZ GTPase activity expressed in Escherichia coli BL21 (DE3) after 1 hr by Lineweaver-Burk plot analysis"}}}
{"smiles": "CCN(CC)CCNc1nc(/C=C/c2ccc(Cl)cc2)nc2cc3ccccc3cc12", "values": [{"measurement": "Activity", "setting": "Escherichia coli [1]", "result": 7.7, "unit": "%"}, {"measurement": "Activity", "setting": "Bacillus subtilis [2]", "result": 75.3, "unit": "%"}, {"measurement": "Activity", "setting": "Escherichia coli [3]", "result": 12, "unit": "%"}, {"measurement": "Activity", "setting": "Escherichia coli [4]", "result": 57.7, "unit": "%"}, {"measurement": "Activity", "setting": "Bacillus subtilis [5]", "result": 8, "unit": "%"}, {"measurement": "Activity", "setting": "Bacillus subtilis [6]", "result": 12.6, "unit": "%"}]}
{"smiles": "COc1cc2oc(=O)c(-c3ccc(O)cc3O)cc2c(OC)c1CC=C(C)C", "note": "[GLYCYRIN]", "values": [{"measurement": "inhibition", "setting": "Bacillus subtilis [7]", "result": 60, "unit": "%"}, {"measurement": "Activity", "setting": "Escherichia coli [1]", "result": 88.6, "unit": "%"}, {"measurement": "MIC", "setting": "Bacillus subtilis [8]", "result": 40, "unit": "µM"}, {"measurement": "fold change (FC)", "setting": "Bacillus subtilis [9]", "result": "0.8 to 7.7"}, {"measurement": "Activity", "setting": "Bacillus subtilis [2]", "result": 74.4, "unit": "%"}, {"measurement": "Activity", "setting": "Escherichia coli [3]", "result": 87.8, "unit": "%"}, {"measurement": "Activity", "setting": "Escherichia coli [4]", "result": 103, "unit": "%"}, {"measurement": "Ki", "setting": "[10]", "result": 42.6, "unit": "µM"}, {"measurement": "Activity", "setting": "Bacillus subtilis [5]", "result": 17, "unit": "%"}, {"measurement": "Activity", "setting": "Bacillus subtilis [6]", "result": 17.5, "unit": "%"}]}
{"smiles": "COc1c(CC=C(C)C)c(O)cc2oc(-c3ccc(O)cc3O)cc12", "values": [{"measurement": "fold change (FC)", "setting": "Bacillus subtilis [9]", "result": "0.8 to 7.7"}, {"measurement": "Activity", "setting": "Bacillus subtilis [2]", "result": 98.1, "unit": "%"}, {"measurement": "Activity", "setting": "Escherichia coli [3]", "result": 73.5, "unit": "%"}, {"measurement": "Activity", "setting": "Escherichia coli [4]", "result": 99.4, "unit": "%"}, {"measurement": "Activity", "setting": "Bacillus subtilis [5]", "result": 35.3, "unit": "%"}, {"measurement": "Activity", "setting": "Bacillus subtilis [6]", "result": 55.5, "unit": "%"}]}
{"smiles": "NC[C@H]1O[C@H](O[C@H]2[C@H](O)[C@@H](O[C@H]3O[C@H](CO)[C@@H](O)[C@H](N)[C@H]3O)[C@H](N)C[C@@H]2N)[C@H](O)[C@@H](O)[C@@H]1O", "note": "[KANAMYCIN]", "values": [{"measurement": "MIC", "setting": "Bacillus subtilis [8]", "result": "< 20", "unit": "µM"}]}
{"smiles": "COc1c(CC=C(C)C)c(O)cc2oc(=O)c(-c3ccc(O)cc3O)cc12", "values": [{"measurement": "Activity", "setting": "Escherichia coli [1]", "result": 67.3, "unit": "%"}, {"measurement": "fold change (FC)", "setting": "Bacillus subtilis [9]", "result": "0.8 to 7.7"}, {"measurement": "Activity", "setting": "Bacillus subtilis [2]", "result": 87.8, "unit": "%"}, {"measurement": "Activity", "setting": "Escherichia coli [3]", "result": 85.6, "unit": "%"}, {"measurement": "Activity", "setting": "Escherichia coli [4]", "result": 95.9, "unit": "%"}, {"measurement": "Activity", "setting": "Bacillus subtilis [5]", "result": 30.4, "unit": "%"}, {"measurement": "Activity", "setting": "Bacillus subtilis [6]", "result": 52.3, "unit": "%"}]}
{"smiles": "COc1cc2oc(-c3ccc(O)cc3O)cc2c(OC)c1CC=C(C)C", "values": [{"measurement": "inhibition", "setting": "Bacillus subtilis [7]", "result": 60, "unit": "%"}, {"measurement": "MIC", "setting": "Bacillus subtilis [8]", "result": 5, "unit": "µM"}, {"measurement": "fold change (FC)", "setting": "Bacillus subtilis [9]", "result": "0.8 to 7.7"}, {"measurement": "Activity", "setting": "Bacillus subtilis [2]", "result": 37.4, "unit": "%"}, {"measurement": "Activity", "setting": "Escherichia coli [3]", "result": 63.2, "unit": "%"}, {"measurement": "Activity", "setting": "Escherichia coli [4]", "result": 88.4, "unit": "%"}, {"measurement": "Ki", "setting": "[10]", "result": 30.9, "unit": "µM"}, {"measurement": "Activity", "setting": "Bacillus subtilis [5]", "result": 10.1, "unit": "%"}, {"measurement": "Activity", "setting": "Bacillus subtilis [6]", "result": 10.1, "unit": "%"}]}
{"smiles": "CC(C)=CCc1cc(-c2coc3cc(O)cc(O)c3c2=O)cc(O)c1O", "values": [{"measurement": "Activity", "setting": "Escherichia coli [1]", "result": 93.1, "unit": "%"}, {"measurement": "fold change (FC)", "setting": "Bacillus subtilis [9]", "result": "0.8 to 7.7"}, {"measurement": "Activity", "setting": "Bacillus subtilis [2]", "result": 89.1, "unit": "%"}, {"measurement": "Activity", "setting": "Escherichia coli [3]", "result": 98.3, "unit": "%"}, {"measurement": "Activity", "setting": "Escherichia coli [4]", "result": 97.7, "unit": "%"}, {"measurement": "Activity", "setting": "Bacillus subtilis [5]", "result": 63.4, "unit": "%"}, {"measurement": "Activity", "setting": "Bacillus subtilis [6]", "result": 85.1, "unit": "%"}]}
{"smiles": "COc1c(CC=C(C)C)c(O)cc(O)c1-c1coc2cc(O)ccc2c1=O", "values": [{"measurement": "Activity", "setting": "Escherichia coli [1]", "result": 106, "unit": "%"}, {"measurement": "fold change (FC)", "setting": "Bacillus subtilis [9]", "result": "0.8 to 7.7"}, {"measurement": "Activity", "setting": "Bacillus subtilis [2]", "result": 97.4, "unit": "%"}, {"measurement": "Activity", "setting": "Escherichia coli [3]", "result": 105, "unit": "%"}, {"measurement": "Activity", "setting": "Escherichia coli [4]", "result": 101, "unit": "%"}, {"measurement": "Activity", "setting": "Bacillus subtilis [5]", "result": 90.2, "unit": "%"}, {"measurement": "Activity", "setting": "Bacillus subtilis [6]", "result": 96.8, "unit": "%"}]}
{"smiles": "CC(C)=CCc1cc(-c2oc3cc(O)cc(O)c3c(=O)c2O)ccc1O", "note": "[ISOLICOFLAVONOL]", "values": [{"measurement": "inhibition", "setting": "Bacillus subtilis [7]", "result": 60, "unit": "%"}, {"measurement": "MIC", "setting": "Bacillus subtilis [8]", "result": 40, "unit": "µM"}, {"measurement": "fold change (FC)", "setting": "Bacillus subtilis [9]", "result": "0.8 to 7.7"}, {"measurement": "Activity", "setting": "Bacillus subtilis [2]", "result": 48.5, "unit": "%"}, {"measurement": "Activity", "setting": "Escherichia coli [3]", "result": 61.2, "unit": "%"}, {"measurement": "Activity", "setting": "Escherichia coli [4]", "result": 95.2, "unit": "%"}, {"measurement": "Ki", "setting": "[10]", "result": 37.7, "unit": "µM"}, {"measurement": "Activity", "setting": "Bacillus subtilis [5]", "result": 7.7, "unit": "%"}, {"measurement": "Activity", "setting": "Bacillus subtilis [6]", "result": 10.1, "unit": "%"}]}
